Source: the supplement of paper PMC10627819

Key:
[1] = test system: S. aureus DSM 20231; assay: fitness (endpoint OD595 vs no drug) (fraction); higher = more growth
Procedure, shortened: (§1)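 In 384-well plates at 37 °C, cultures began at OD595 0.01 in 30 µl, with 55 µl used for S. pneumoniae. OD595 readings every 30 min for 14 h were corrected by the first reading. Fitness divides the stationary-phase transition optical density by the robust mean of no-drug control wells. The result is capped at 1.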

[2] = test system: S. aureus Newman; assay: as above
Procedure, shortened: as §1

[3] = test system: S. pneumoniae D39V; assay: as above
Procedure, shortened: as §1

[4] = test system: B. subtilis 168; assay: Bliss interaction score (quartile over a dose matrix) (fitness difference); higher = more antagonism (negative = synergy)
Procedure, shortened: (§2)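 Fitness was derived from optical density at entry into stationary phase, divided by the robust mean of the no-drug wells on the same plate. That reading was taken as OD595, and the ratio was capped at 1. Single-drug fitness was inferred from the combination data. The Bliss score, observed fitness minus the expected product of single-drug fitness, was summarised as quartiles over technical, biological and donor/recipient replicates.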

[5] = test system: S. aureus DSM 20231; assay: as above
Procedure, shortened: as §2

[6] = test system: S. aureus Newman; assay: as above
Procedure, shortened: as §2

[7] = test system: S. pneumoniae D39V; assay: as above
Procedure, shortened: as §2

[8] = first compound 0.0625 µg/mL, partner 4 µg/mL
[9] = first compound 0.0625 µg/mL, partner 8 µg/mL
[10] = first compound 0.0625 µg/mL, partner 16 µg/mL
[11] = first compound 0.0625 µg/mL, partner 32 µg/mL, one replicate
[12] = first compound 0.0625 µg/mL, partner 64 µg/mL, one replicate
[13] = first compound 0.125 µg/mL, partner 4 µg/mL
[14] = first compound 0.125 µg/mL, partner 32 µg/mL, one replicate
[15] = first compound 0.125 µg/mL, partner 64 µg/mL, one replicate
[16] = first compound 0.25 µg/mL, partner 8 µg/mL
[17] = first compound 0.25 µg/mL, partner 32 µg/mL, one replicate
[18] = first compound 0.25 µg/mL, partner 64 µg/mL, one replicate
[19] = first compound 0.0625 µg/mL, partner 0.1875 µg/mL
[20] = first compound 0.0625 µg/mL, partner 0.375 µg/mL
[21] = first compound 0.125 µg/mL, partner 0.1875 µg/mL
[22] = first compound 0.125 µg/mL, partner 0.375 µg/mL
[23] = first compound 0.25 µg/mL, partner 0.1875 µg/mL
[24] = first compound 0.25 µg/mL, partner 0.375 µg/mL
[25] = first compound 0.25 µg/mL, partner 0.75 µg/mL
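Throughout, for Bliss interaction score (quartile over a dose matrix): first quartile when negative (synergy) and third quartile when positive (antagonism).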

## CC1(C)S[C@@H]2[C@H](NC(=O)[C@H](N)c3ccc(O)cc3)C(=O)N2[C@H]1C(=O)O [Amoxicillin] + CN[C@@H]1[C@H](O)[C@H](NC)[C@H]2O[C@@]3(O)C(=O)C[C@@H](C)O[C@H]3O[C@@H]2[C@H]1O [Spectinomycin]
[1]; [8]
  fitness: 0.649
[1]; [9]
  fitness: 0.63
[1]; [10]
  fitness: 0.572
[1]; [11]
  fitness: 0.533
[1]; [12]
  fitness: 0.0322
[1]; [13]
  fitness: 0.414
[1]; [14]
  fitness: 0.302
[1]; [15]
  fitness: 0.0172
[1]; [16]
  fitness: 0.148
[1]; [17]
  fitness: 0.0187
[1]; [18]
  fitness: 0.0033
[1]; first compound 0.5 µg/mL, partner 4 µg/mL, one replicate
  fitness: 0.0014
[1]; first compound 0.5 µg/mL, partner 8 µg/mL, one replicate
  fitness: 0.0081
[1]; first compound 0.5 µg/mL, partner 16 µg/mL, one replicate
  fitness: 0
[2]; [8]
  fitness: 0.874
[2]; [9]
  fitness: 0.876
[2]; [10]
  fitness: 0.823
[2]; [11]
  fitness: 0.373
[2]; [12]
  fitness: 0.0208
[2]; [13]
  fitness: 0.875
[2]; first compound 0.125 µg/mL, partner 8 µg/mL
  fitness: 0.861
[2]; first compound 0.125 µg/mL, partner 16 µg/mL
  fitness: 0.816
[2]; [14]
  fitness: 0.308
[2]; [15]
  fitness: 0.03
[2]; first compound 0.25 µg/mL, partner 4 µg/mL
  fitness: 0.863
[2]; [16]
  fitness: 0.826
[2]; [17]
  fitness: 0.141
[2]; [18]
  fitness: 0.0162
[3]; first compound 0.0008 µg/mL, partner 4 µg/mL
  fitness: 0.962
[3]; first compound 0.0008 µg/mL, partner 8 µg/mL
  fitness: 0.911
[3]; first compound 0.0008 µg/mL, partner 16 µg/mL, one replicate
  fitness: 0.951
[3]; first compound 0.0015 µg/mL, partner 4 µg/mL
  fitness: 0.975
[3]; first compound 0.0015 µg/mL, partner 8 µg/mL
  fitness: 0.94
[3]; first compound 0.0015 µg/mL, partner 16 µg/mL
  fitness: 0.887
[3]; first compound 0.003 µg/mL, partner 4 µg/mL
  fitness: 0.882
[3]; first compound 0.003 µg/mL, partner 8 µg/mL
  fitness: 0.89
[3]; first compound 0.003 µg/mL, partner 16 µg/mL
  fitness: 0.826
[3]; first compound 0.006 µg/mL, partner 4 µg/mL, one replicate
  fitness: 0.274
[3]; first compound 0.006 µg/mL, partner 8 µg/mL, one replicate
  fitness: 0.329
[3]; first compound 0.006 µg/mL, partner 16 µg/mL, one replicate
  fitness: 0.416
[4]
  Bliss interaction score: -0.0495
[5]
  Bliss interaction score: 0.0589
[6]
  Bliss interaction score: 0.0408
[7]
  Bliss interaction score: 0.0712

## CC1(C)S[C@@H]2[C@H](NC(=O)[C@H](N)c3ccc(O)cc3)C(=O)N2[C@H]1C(=O)O [Amoxicillin] + CN[C@H](CC(C)C)C(=O)N[C@H]1C(=O)N[C@@H](CC(N)=O)C(=O)N[C@H]2C(=O)N[C@H]3C(=O)N[C@H](C(=O)N[C@H](C(=O)O)c4cc(O)cc(O)c4-c4cc3ccc4O)[C@H](O)c3ccc(c(Cl)c3)Oc3cc2cc(c3O[C@@H]2O[C@H](CO)[C@@H](O)[C@H](O)[C@H]2O[C@H]2C[C@](C)(N)[C@H](O)[C@H](C)O2)Oc2ccc(cc2Cl)[C@H]1O [Vancomycin]
[1]; [19]
  fitness: 0.605
[1]; [20]
  fitness: 0.667
[1]; [21]
  fitness: 0.397
[1]; [22]
  fitness: 0.452
[1]; [23]
  fitness: 0.125
[1]; [24]
  fitness: 0.15
[1]; [25]
  fitness: 0.176
[1]; first compound 0.5 µg/mL, partner 0.1875 µg/mL
  fitness: 0.0104
[1]; first compound 0.5 µg/mL, partner 0.375 µg/mL
  fitness: 0.0135
[1]; first compound 0.5 µg/mL, partner 0.75 µg/mL
  fitness: 0.0165
[2]; [19]
  fitness: 0.916
[2]; [20]
  fitness: 0.914
[2]; first compound 0.0625 µg/mL, partner 0.75 µg/mL
  fitness: 0.879
[2]; [21]
  fitness: 0.887
[2]; [22]
  fitness: 0.875
[2]; first compound 0.125 µg/mL, partner 0.75 µg/mL
  fitness: 0.877
[2]; [23]
  fitness: 0.89
[2]; [24]
  fitness: 0.866
[2]; [25]
  fitness: 0.811
[3]; first compound 0.0008 µg/mL, partner 0.03125 µg/mL
  fitness: 0.988
[3]; first compound 0.0008 µg/mL, partner 0.0625 µg/mL
  fitness: 0.871
[3]; first compound 0.0008 µg/mL, partner 0.125 µg/mL
  fitness: 0.894
[3]; first compound 0.0008 µg/mL, partner 0.25 µg/mL, one replicate
  fitness: 0.928
[3]; first compound 0.0008 µg/mL, partner 0.5 µg/mL, one replicate
  fitness: 0.33
[3]; first compound 0.0015 µg/mL, partner 0.03125 µg/mL
  fitness: 0.977
[3]; first compound 0.0015 µg/mL, partner 0.0625 µg/mL
  fitness: 0.852
[3]; first compound 0.0015 µg/mL, partner 0.125 µg/mL
  fitness: 0.913
[3]; first compound 0.0015 µg/mL, partner 0.25 µg/mL
  fitness: 0.869
[3]; first compound 0.0015 µg/mL, partner 0.5 µg/mL
  fitness: 0.299
[3]; first compound 0.003 µg/mL, partner 0.03125 µg/mL
  fitness: 0.861
[3]; first compound 0.003 µg/mL, partner 0.0625 µg/mL
  fitness: 0.762
[3]; first compound 0.003 µg/mL, partner 0.125 µg/mL
  fitness: 0.783
[3]; first compound 0.003 µg/mL, partner 0.25 µg/mL
  fitness: 0.742
[3]; first compound 0.003 µg/mL, partner 0.5 µg/mL
  fitness: 0.289
[3]; first compound 0.006 µg/mL, partner 0.125 µg/mL, one replicate
  fitness: 0.234
[3]; first compound 0.006 µg/mL, partner 0.25 µg/mL, one replicate
  fitness: 0.13
[3]; first compound 0.006 µg/mL, partner 0.5 µg/mL, one replicate
  fitness: 0.0321
[4]
  Bliss interaction score: -0.0442
[5]
  Bliss interaction score: 0.074
[6]
  Bliss interaction score: 0.0681
[7]
  Bliss interaction score: 0.101
